Data taken from patent US8133472B2, “Cyclopeptides containing RGD mimetics as imaging markers for integrins” (Siemens Medical Solutions USA, Inc., priority 2008, dated 2012).
“And” between values parts separate entries of the source, which are not always exact repeats. Equal values may be shown once. Non-standard residues stand in square brackets, D forms with d. Residues, ends and D or L forms follow the SMILES beside them. *: point of attachment. X1 = O=C(Cn1cc(CCCF)nn1)NCC1OC(C(=O)*)C(O)C(O)C1O

Legend:
[1] = molecular target: T1, Integrin αvβ3 expressing U87MG cells (Homo sapiens, UniProt P05106+P06756); assay: Cell-based integrin receptor-binding competition assay against fluorescent compound 21; conditions: 10 nM compound 21, 2 hrs, FIG. 4
T1 construct: Integrin αvβ3 expressing U87MG cells; endogenous in cells; host or cells: U87MG
Experimental: After incubation, cells were washed three times to eliminate unbound cyclic peptides. Fluorescence readings (RLU) were then taken (excitation at 491 nm, emission at 518 nm, cutoff 515 nm). Fluorescence signals of wells without cyclic peptides were set as 100% and used as control. […] All treatments were carried out in triplicates.

integrin αvβ3 [2] = molecular target: T2, integrin αvβ3 (Homo sapiens, UniProt P05106+P06756); assay: Binding affinity to integrin αvβ3, summary statements (FIG. 1-4); conditions: general statement
Experimental: Compound 20 was immobilized onto a CM5 chip (Supplier: Biacore. CM5 is a SPR chip with a carboxymethylated dextran covalently attached to a gold surface) via amine coupling. Intergrin αvβ3 samples at 50 nM concentration, premixed with a wide range of concentrations of RGD test compound (0˜2000 nM), were flowed through the CM5 chip at 14° C.
The interactions between the flowing integrin αvβ3 sample and the surface of the chip were recorded by Biacore sensorgram signals. Flow cell #1 served as blank control and the flow cell #2 were coated with compound 20. After subtraction the blank signal of flow cell #1 from the signal of flow cell #2, the resulting sensorgram signals from each cycle were converted into percentage values and the Kd and IC50 values for each cyclopeptides were calculated.
Inhibitory effects of cyclic peptides were quantified by measuring their effects on the interactions between immobilized integrin and biotinylated soluble ligand. Integrin αvβ3 was immobilized on a 96 well plate. […] The wells were incubated with alkaline-phsphatase substrate and the intensities of yellow color product were measured in plate reader. […]
Integrin αvβ3 expressing U87MG cells were incubated with a series of concentration of cyclic peptides (0.01, 0.1, 1, 10, 100, 1000, 10000 nM) in the presence of 10 nM of green fluorescence labeled compound 21 for 2 hrs. […]

[3] = tested on: U87MG human glioblastoma tumor xenograft; assay type: in vivo, mouse
Experimental: PET Studies: In vivo microPET imaging of a tumor-bearing mouse is performed on an anesthetized mouse bearing tumor xenograft of U87MG human glioblastoma after administration of the test imaging cyclic peptides. Animals are induced with 5% isoflurane/oxygen until anesthetized and then maintained on 2-2.5% isoflurane/oxygen inhalation for the duration of each PET scanning procedure (up to 2 hours). Anesthetized animals are placed on a heated pad for the duration of each PET scan. Animals are scanned at 1 hour post-injection for 30 min.

FIG. 5 = assay: FIG. 5
Experimental: Table printed on a drawing sheet, FIG. 5
The patent's description of the figure: FIG. 5 is a microPET imaging of Compound 19 in a U87MG xenograft mouse model at 1 hour post-injection.
First reader's note: Tissue uptake from the microPET image beside the table; rows are the right-side (RS) tumor, the left-side (LS) tumor and muscle.

integrin αvβ3 [4] = molecular target: T2, integrin αvβ3; conditions: background statement; cited from earlier work
M21 melanoma xenograft = conditions: integrin-positive M21 melanoma xenograft; cited from earlier work
[5] = tested on: A431 human squamous cell carcinoma model; conditions: integrin negative cell line A431; cited from earlier work
[6] = cited from earlier work
tumor = conditions: in vivo, cited from earlier work
[7] = comparison among cyclic peptides 4, 1 and RGDfK
[8] = comparison of cyclic peptides 18 and 23

N=C(N)NCCC[C@@H]1NC(=O)[C@H](CCCCN)NC(=O)[C@@H](Cc2ccccc2)NC(=O)[C@H](CC(=O)O)NC(=O)[C@H](CO)NC1=O [Compound 1] (cyclo(D[dF]KRS))
potency (competition of binding) [1, 7]: very similar in potency

C[C@@H]1NC(=O)[C@H](CCCNC(=N)N)NC(=O)[C@H](CCCCN)NC(=O)[C@@H](Cc2ccccc2)NC(=O)[C@H](CC(=O)O)NC1=O [Compound 4] (cyclo(RAD[dF]K))
potency (competition of binding) [1, 7]: very similar in potency | binding affinity to integrin αvβ3 (integrin αvβ3 [2]): high binding affinity

C[C@@H]1NC(=O)[C@H](CCCNC(=N)N)NC(=O)[C@H](CCCCNC(=O)C2OC(CNC(=O)Cn3cc(CCCF)nn3)C(O)C(O)C2O)NC(=O)[C@@H](Cc2ccccc2)NC(=O)[C@H](CC(=O)O)NC1=O (some centres unmarked) [Compound 18] (cyclo(AD[dF]K(X1)R))
potency (competition of binding) [1, 8]: very similar in potency | binding affinity to integrin αvβ3 (integrin αvβ3 [2]): high binding affinity

C[C@@H]1NC(=O)[C@H](CCCNC(=N)N)NC(=O)[C@H](CCCCNC(=O)C2O[C@H](CNC(=O)Cn3cc(CCC[18F])nn3)[C@H](O)C(O)[C@@H]2O)NC(=O)[C@@H](Cc2ccccc2)NC(=O)[C@H](CC(=O)O)NC1=O (some centres unmarked) [Compound 19]
tumor uptake and retention ([3]; microPET, 1 hour post-injection, FIG. 5): good tumor uptake and retention | wash-out rate from muscle and other healthy tissues ([3]; mouse, in vivo): fast wash-out rate | %ID/g (FIG. 5): 0.042 %ID/g and 0.034 %ID/g and 0.025 %ID/g

C[C@@H]1NC(=O)[C@H](CCCNC(=N)N)NC(=O)[C@H](CCCCNC(=O)CCN(CCC(=O)NCCCC[C@@H]2NC(=O)[C@@H](Cc3ccccc3)NC(=O)[C@H](CC(=O)O)NC(=O)[C@H](C)NC(=O)[C@H](CCCNC(=N)N)NC2=O)C(=O)CCOCCOCCOCCOCCNC(=O)n2cc(CCCF)nn2)NC(=O)[C@@H](Cc2ccccc2)NC(=O)[C@H](CC(=O)O)NC1=O [Compound 23]
potency (competition of binding) [1, 8]: very similar in potency

CC([18F])C(=O)NC[C@H]1OC(C(=O)NCCCC[C@@H]2NC(=O)[C@@H](Cc3ccccc3)NC(=O)[C@H](CC(=O)O)NC(=O)CNC(=O)[C@H](CCCNC(=N)N)NC2=O)[C@@H](O)C(O)C1O (some centres unmarked) [[^18F]Galacto-RGD]
integrin binding affinity (integrin αvβ3 [4]): relatively low integrin binding affinity | tumor uptake (M21 melanoma xenograft): integrin αvβ3-specific tumor uptake | tracer localization [5]: did not localize on tumor cells | tumor standard uptake values ([6]; background statement): modest tumor standard uptake values | tracer accumulation in organs ([6]; both preclinical models and human studies): prominent tracer accumulation in the liver, kidneys, spleen, and intestines

c(RGDyV)
tumor uptake (tumor; 125I-labeled peptide): receptor-specific tumor uptake | excretion (tumor): unfavorable hepatobiliary excretion | tumor washout (tumor): rapid tumor washout
